Data on nine compounds can be found in US20260295053A1, “COMPOUNDS FOR DEGRADATION AND INHIBITION OF KRAS (G12D) PROTEIN” (Shenzhen Ionova Life Science Co., Ltd., priority 2023, published 2026).

A value given as a limit tells only on which side of the number the result lay.

The target in this experiment is T1, KRAS (G12D) (Homo sapiens, UniProt P01116, G12D).
T1 construct: in-cell western with KRAS G12D antibody after 24 h
T1 sequence (P01116 1-188 isoform P01116-2 G12D): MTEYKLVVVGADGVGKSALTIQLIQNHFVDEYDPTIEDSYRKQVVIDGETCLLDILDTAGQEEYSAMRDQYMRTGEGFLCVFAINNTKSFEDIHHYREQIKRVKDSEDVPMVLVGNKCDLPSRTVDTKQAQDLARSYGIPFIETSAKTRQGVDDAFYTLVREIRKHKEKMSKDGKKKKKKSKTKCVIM
The experiment is described as follows: KRAS (G12D) cellular degradation assay in AsPC-1 cells. In kind it is cell-based. The note with it: 24 hours, antibody fluorescence (Odyssey CLX), DC50 half-maximal degradation concentration. The method in brief: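 AsPC-1 cells: for degradation, grown to ~90% confluency, treated 24 h with 1:3 compound series ([…] to 1.5 nM), then fixed and immunostained for KRAS G12D and β-actin, read by infrared fluorescence, DC50 fitted. Proliferation: 3,500 cells/well, 6-day treatment, CellTiter Glo luminescence, IC50 fitted.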
`CO[C@@H](C)COc1nc(N2C[C@@H]3C[C@H]2CN3)c2cc(C3CC3)c(-c3c(C)c(F)cc4[nH]ncc34)c(OCc3ccc(-c4cn([C@H](C(=O)N5C[C@H](O)C[C@H]5C(=O)N[C@H](C#Cc5cccc6c5cnn6C)CO)C(C)C)nn4)cc3)c2n1` [Example 134, (2S,4R)-1-((2S)-2-(4-(4-(((4-((1S,4S)-2,5-diazabicyclo[2.2.1]heptan-2-yl)-6-cyclopropyl-7-(6-fluoro-5-methyl-1H-indazol-4-yl)-2-((S)-2-methoxypropoxy)quinazolin-8-yl)oxy)methyl)phenyl)-1H-1,2,3-triazol-1-yl)-3-methylbutanoyl)-4-hydroxy-N—((R)-1-hydroxy-4-(1-methyl-1H-indazol-4-yl)but-3-yn-2-yl)pyrrolidine-2-carboxamide]: the DC50 was in the range of 10 to 100 nM.

`CCn1nccc1-c1ccc([C@H](CO)NC(=O)[C@@H]2C[C@@H](O)CN2C(=O)[C@H](C(C)C)n2cc(-c3ccc(COc4c(-c5c(C)c(F)cc6[nH]ncc56)c(C5CC5)cc5c(N6CCC[C@](C)(O)C6)nc(OC[C@H](C)OC)nc45)cc3)nn2)cc1` [Example 39, (2S,4R)-1-((2S)-2-(4-(4-(((6-cyclopropyl-7-(6-fluoro-5-methyl-1H-indazol-4-yl)-4-((S)-3-hydroxy-3-methylpiperidin-1-yl)-2-((S)-2-methoxypropoxy)quinazolin-8-yl)oxy)methyl)phenyl)-1H-1,2,3-triazol-1-yl)-3-methylbutanoyl)-N—((R)-1-(4-(1-ethyl-1H-pyrazol-5-yl)phenyl)-2-hydroxyethyl)-4-hydroxypyrrolidine-2-carboxamide] showed a DC50 of 10 to 100 nM.

Consider `CCn1nccc1-c1ccc(CNC(=O)[C@@H]2C[C@@H](O)CN2C(=O)[C@H](C(C)C)n2cc(-c3ccc(COc4c(-c5c(C)c(F)cc6[nH]ncc56)c(C5CC5)cc5c(N6C[C@H]7C[C@@H]6CN7)nc(OC[C@H](C)OC)nc45)cc3)nn2)cc1` (single isomer, unassigned) [Example 7B], for which the DC50 was more than 1000 nM.

The compound `CCn1nccc1-c1ccc([C@H](CO)NC(=O)[C@@H]2C[C@@H](O)CN2C(=O)[C@H](C(C)C)n2cc(-c3ccc(COc4c(-c5c(C)c(F)cc6[nH]ncc56)c(C5CC5)cc5c(N6CCNCC[C@@H]6C)nc(OC[C@H](C)OC)nc45)cc3)nn2)cc1` [Example 183, (2S,4R)-1-((2S)-2-(4-(4-(((6-cyclopropyl-7-(6-fluoro-5-methyl-1H-indazol-4-yl)-2-((S)-2-methoxypropoxy)-4-((S)-7-methyl-1,4-diazepan-1-yl)quinazolin-8-yl)oxy)methyl)phenyl)-1H-1,2,3-triazol-1-yl)-3-methylbutanoyl)-N—((R)-1-(4-(1-ethyl-1H-pyrazol-5-yl)phenyl)-2-hydroxyethyl)-4-hydroxypyrrolidine-2-carboxamide] registered a DC50 of 10 to 100 nM.

The compound `CO[C@H]1CC[C@H](Oc2nc(N3C[C@@H]4C[C@H]3CN4)c3cc(C4CC4)c(-c4c(C)c(F)cc5[nH]ncc45)c(OCc4ccc(-c5cn([C@H](C(=O)N6C[C@H](O)C[C@H]6C(=O)N[C@H](c6ccc(-c7scnc7C)cc6)[C@H](C)O)C(C)C)nn5)cc4)c3n2)C1` [Example 215, (2S,4R)-1-((2S)-2-(4-(4-(((4-((1S,4S)-2,5-diazabicyclo[2.2.1]heptan-2-yl)-6-cyclopropyl-7-(6-fluoro-5-methyl-1H-indazol-4-yl)-2-(((1S,3S)-3-methoxycyclopentyl)oxy)quinazolin-8-yl)oxy)methyl)phenyl)-1H-1,2,3-triazol-1-yl)-3-methylbutanoyl)-4-hydroxy-N-((1R,2S)-2-hydroxy-1-(4-(4-methylthiazol-5-yl)phenyl)propyl)pyrrolidine-2-carboxamide] registered a DC50 of less than 10 nM.

On to `CO[C@@H](C)COc1nc(N2C[C@@H]3C[C@H]2CN3)c2cc(C3CC3)c(-c3c(C)c(F)cc4[nH]ncc34)c(OCc3ccc(-c4cn([C@H](C(=O)N5C[C@H](O)C[C@H]5C(=O)N[C@H](C#Cc5cc(F)cc(F)c5)CO)C(C)C)nn4)cc3)c2n1` [Example 141, (2S,4R)-1-((2S)-2-(4-(4-(((4-((1S,4S)-2,5-diazabicyclo[2.2.1]heptan-2-yl)-6-cyclopropyl-7-(6-fluoro-5-methyl-1H-indazol-4-yl)-2-((S)-2-methoxypropoxy)quinazolin-8-yl)oxy)methyl)phenyl)-1H-1,2,3-triazol-1-yl)-3-methylbutanoyl)-N—((R)-4-(3,5-difluorophenyl)-1-hydroxybut-3-yn-2-yl)-4-hydroxypyrrolidine-2-carboxamide], for which the DC50 lay in the range of 10 to 100 nM.

`CO[C@@H](C)COc1nc(N2C[C@@H]3CN[C@@H](C3)C2)c2cc(C3CC3)c(-c3c(C)c(F)cc4[nH]ncc34)c(OCc3ccc(-c4cn([C@H](C(=O)N5C[C@H](O)C[C@H]5C(=O)N[C@@H](CO)c5ccc(-c6scnc6C)cc5)C(C)C)nn4)cc3)c2n1` [Example 230, (2S,4R)-1-((2S)-2-(4-(4-(((4-((1S,5S)-3,6-diazabicyclo[3.2.1]octan-3-yl)-6-cyclopropyl-7-(6-fluoro-5-methyl-1H-indazol-4-yl)-2-((S)-2-methoxypropoxy)quinazolin-8-yl)oxy)methyl)phenyl)-1H-1,2,3-triazol-1-yl)-3-methylbutanoyl)-4-hydroxy-N—((R)-2-hydroxy-1-(4-(4-methylthiazol-5-yl)phenyl)ethyl)pyrrolidine-2-carboxamide] yielded a DC50 of 10 to 100 nM.

The compound `CCn1cc2cccc(C#C[C@H](CO)NC(=O)[C@@H]3C[C@@H](O)CN3C(=O)[C@H](C(C)C)n3cc(-c4ccc(COc5c(-c6c(C)c(F)cc7[nH]ncc67)c(C6CC6)cc6c(N7C[C@@H]8C[C@H]7CN8)nc(O[C@H]7C[C@H](OC)C7)nc56)cc4)nn3)c2n1` [Example 168, (2S,4R)-1-((2S)-2-(4-(4-(((4-((1S,4S)-2,5-diazabicyclo[2.2.1]heptan-2-yl)-6-cyclopropyl-7-(6-fluoro-5-methyl-1H-indazol-4-yl)-2-((1r,3S)-3-methoxycyclobutoxy)quinazolin-8-yl)oxy)methyl)phenyl)-1H-1,2,3-triazol-1-yl)-3-methylbutanoyl)-N—((R)-4-(2-ethyl-2H-indazol-7-yl)-1-hydroxybut-3-yn-2-yl)-4-hydroxypyrrolidine-2-carboxamide] returned a DC50 of 10 to 100 nM.

Take `CCn1nccc1-c1ccc([C@H](CO)NC(=O)[C@@H]2C[C@@H](O)CN2C(=O)[C@H](C(C)C)n2cc(-c3ccc(COc4c(-c5c(C)c(F)cc6[nH]ncc56)c(C5CC5)cc5c(N6C[C@@H]7C[C@H]6CN7)nc(N6CC(OC)C6)nc45)cc3)nn2)cc1` [Example 126, (2S,4R)-1-((2S)-2-(4-(4-(((4-((1S,4S)-2,5-diazabicyclo[2.2.1]heptan-2-yl)-6-cyclopropyl-7-(6-fluoro-5-methyl-1H-indazol-4-yl)-2-(3-methoxyazetidin-1-yl)quinazolin-8-yl)oxy)methyl)phenyl)-1H-1,2,3-triazol-1-yl)-3-methylbutanoyl)-N—((R)-1-(4-(1-ethyl-1H-pyrazol-5-yl)phenyl)-2-hydroxyethyl)-4-hydroxypyrrolidine-2-carboxamide]: the DC50 lay in the range of 10 to 100 nM.

One may read the DC50 as the midpoint of the concentration-degradation curve. Read a low DC50 as degradation at low concentration.
